Drawing on patent US7378407B2, “Geldanamycin compounds and method of use” (Kosan Biosciences Incorporated, priority 2004, dated 2008), this text covers Kd and IC50 for 11 molecules.

One experiment deals with human Hsp90α (Homo sapiens, UniProt P07900). The experiment is described as follows: Hsp90α binding, SPA competition with [allyl-3H]-17-AAG. The text has this: Truncated (Carreras et al. Anal. Biochem. 2003, 317, 40-46) and full-length forms of human Hsp90 were expressed in E. coli with N-terminal polyHis and biotinylation recognition sequence (BRS) tags to facilitate purification and SPA assay, respectively. […] The 3′ end of the gene contained a BamHI site, adding a single proline residue to the C-terminus. The tagged full-length protein was cloned into pET21d as described for the tagged N-domain of Hsp90 (Carreras et al., cited supra), and co-expressed with biotin ligase encoded by pBIRAcm (Avidity, Denver, Colo.) in Escherichia coli BL21DE(3).
Biotinylated Hsp90α was added to a 1 mg/mL suspension of streptavidin coated YiSi beads (Pharmacia RPNQ0012; 219 pmol streptavidin/mg) in Binding Buffer (10 mM Tris-HCl, 5 mM MgCl2, pH 7.0) to obtain a final concentration of 225 nM. […] Reaction mixtures were incubated for 2˜4 h at room temperature in 96-well assay plates, then signals for each reaction were measured using a Wallac Microbeta scintillation counter. The resulting data was fit to a competitive binding equation (Segal, I. H., Enzyme Kinetics: Behavior and analysis of rapid equilibrium and steady-state enzyme systems; Wiley Interscience: New York, 1975).

Another experiment deals with SKBr3 cells. The experiment is described as follows: cells. In kind it is cell-based, human. The note with it: read-out: Cytotoxicity, SKBr3 Cells (IC50 (nM)). Here is the method: The human breast cancer cell line SKBr3 was obtained from the American Type Culture Collection (Manassas, Va.) and maintained in McCoy's 5A modified medium (Invitrogen; Carlsbad, Calif.) supplemented with 10% fetal bovine serum (FBS) (Hyclone; Logan, Utah) and 2 mM glutamine, in humidified air with 5% CO2 at 37° C.
Cells were seeded in duplicate in 96-well black tissue culture microtiter plates at ˜4000 cells per well and allowed to attach overnight. Serial 10-fold dilutions of compounds were added, and the cells were incubated for 72 h. Cell viability was determined using the CellTiter-Glo™ Luminescent Cell Viability Assay (Promega; Madison, Wis.). IC50 is defined as the concentration of drug required for inhibiting cell growth by 50%.

Setting [1] is: biotinylated Hsp90α on streptavidin beads, competition with [allyl-3H]-17-AAG, 2-4 h room temperature, pH 7.0, read-out: Hsp90α Binding (Kd (μM)).
The mark [2] stands for this setting: SK-BR-3, human breast cancer cell line SKBr3, 72 h incubation, concentration inhibiting cell growth by 50%.

The Kd is the constant that tells how readily two partners part at equilibrium. In general, IC50 refers to the concentration that inhibits the measured activity by half.

SMILES strings stand for the structures. Where two headings read alike, the source gives them in different places.

On to `CO[C@H]1/C=C\C=C(/C)C(=O)NC2=CC(=O)C(NC[C@@H]3OC(O)[C@@H](O)[C@H](O)[C@H]3O)=C(C[C@@H](C)C[C@H](OC)[C@H](O)[C@@H](C)/C=C(\C)[C@@H]1OC(N)=O)C2=O` (stereo partly shown) [Compound 2, 17-(glucos-6-amino)-17-demethoxygeldanamycin], for which the Kd at human Hsp90α (setting [1]) turned out to be 0.2 µM. Further, in the experiment with SKBr3 cells (setting [2]), the IC50 turned out to be 5300 nM. On the same counts, the results for `CO[C@H]1/C=C\C=C(/C)C(=O)NC2=CC(=O)C(NCCOCCOCCOCCNC(=O)CCCC[C@@H]3SC[C@@H]4NC(=O)N[C@@H]43)=C(C[C@@H](C)C[C@H](OC)[C@H](O)[C@@H](C)/C=C(\C)[C@@H]1OC(N)=O)C2=O` [Compound 6] are 1.1 µM and over 1000 nM.

Turning to `CO[C@H]1/C=C\C=C(/C)C(=O)NC2=CC(=O)C(NCCCCP(=O)(O)O)=C(C[C@@H](C)C[C@H](OC)[C@H](O)[C@@H](C)/C=C(\C)[C@@H]1OC(N)=O)C2=O` [Compound 10], the concentration for half-maximal inhibition (IC50) in the experiment on SKBr3 cells (Homo sapiens, SK-BR-3, 72 h) is about 2000 nM. For the molecule `CO[C@H]1/C=C\C=C(/C)C(=O)NC2=CC(=O)C(NCC[N+](C)(C)C)=C(C[C@@H](C)C[C@H](OC)[C@H](O)[C@@H](C)/C=C(\C)[C@@H]1OC(N)=O)C2=O` [Compound 3, {[2-(17-demethoxygeldanamycin-17-yl)amino]ethyl}trimethylammonium chloride], the Kd on human Hsp90α (setting [1]) turned out to be 0.3 µM. Moreover, in the experiment on SKBr3 cells (setting [2]), the half-inhibitory concentration (IC50) is over 1000 nM.

For the molecule `CO[C@H]1/C=C\C=C(/C)C(=O)NC2=CC(=O)C(NCCC(=O)O)=C(C[C@@H](C)C[C@H](OC)[C@H](O)[C@@H](C)/C=C(\C)[C@@H]1OC(N)=O)C2=O` [Compound 7], the Kd at human Hsp90α (setting [1]) was found to be 1.1 µM. In addition, the IC50 with SKBr3 cells (setting [2]) was over 5000 nM. Taken in the same sequence, the figures for `CO[C@H]1/C=C\C=C(/C)C(=O)NC2=CC(=O)C(NCC[N+](C)(C)[O-])=C(C[C@@H](C)C[C@H](OC)[C@H](O)[C@@H](C)/C=C(\C)[C@@H]1OC(N)=O)C2=O` [Compound 4, [2-(17-demethoxygeldanamycin-17-ylamino)-ethyl]dimethylamine N-oxide] were 0.6 µM and over 1000 nM. In the case of `CO[C@H]1/C=C\C=C(/C)C(=O)NC2=CC(=O)C(N[C@@H]3C(O)O[C@@H](CO)[C@H](O)[C@H]3O)=C(C[C@@H](C)C[C@H](OC)[C@H](O)[C@@H](C)/C=C(\C)[C@@H]1OC(N)=O)C2=O` (stereo partly shown) [Compound 1, 17-(glucos-2-amino)-17-demethoxygeldanamycin], the Kd on human Hsp90α (setting [1]) worked out at 0.5 µM. The IC50 in the experiment on SKBr3 cells (setting [2]) was 1200 nM.

Turning to `CO[C@H]1/C=C\C=C(/C)C(=O)NC2=CC(=O)C(NCCCP(=O)(O)O)=C(C[C@@H](C)C[C@H](OC)[C@H](O)[C@@H](C)/C=C(\C)[C@@H]1OC(N)=O)C2=O` [Compound 9], on human Hsp90α, the equilibrium dissociation constant (Kd) came to 0.9 µM. In the experiment with SKBr3 cells (Homo sapiens, SK-BR-3, 72 h), the IC50 is about 1000 nM. Regarding `CO[C@H]1/C=C\C=C(/C)C(=O)NC2=CC(=O)C(NCCOCCOCCNC(=O)CCCC[C@@H]3SC[C@@H]4NC(=O)N[C@@H]43)=C(C[C@@H](C)C[C@H](OC)[C@H](O)[C@@H](C)/C=C(\C)[C@@H]1OC(N)=O)C2=O` [Compound 5], the IC50 in the experiment on SKBr3 cells (setting [2]) was over 1000 nM. Turning to `C=CCNC1=C2C[C@@H](C)C[C@H](OC)[C@H](O)[C@@H](C)/C=C(\C)[C@H](OC(N)=O)[C@@H](OC)/C=C\C=C(/C)C(=O)NC(=CC1=O)C2=O` [Compound 17-AAG, 17-allylamino-17-demethoxy-geldanamycin, reference compound], the IC50 with SKBr3 cells (Homo sapiens, SK-BR-3, 72 h) is 38 nM. In turn, `CO[C@H]1/C=C\C=C(/C)C(=O)NC2=CC(=O)C(NCCP(=O)(O)O)=C(C[C@@H](C)C[C@H](OC)[C@H](O)[C@@H](C)/C=C(\C)[C@@H]1OC(N)=O)C2=O` [Compound 8] displayed a Kd on human Hsp90α of 0.6 µM. Further, the IC50 with SKBr3 cells (Homo sapiens, SK-BR-3, 72 h) was about 3000 nM.
